Data reported in PubChem BioAssay (NCI).
Several values for one entry are separate records, joined by “and”; a condition that tells them apart may be missing. Identical values can stand only once.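 A five-concentration, 48-hour dose response in 96-well plates underlies each endpoint, interpolated linearly between surrounding concentrations. GI50 is the concentration that inhibits growth by half. TGI: total growth inhibition.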

How the values were obtained:
Experiment in all cases: inhibition of tumour cell growth, NCI panel, 48 h
HCC-2998 colon = tested on: HCC-2998 colon
HCT-15 colon = tested on: HCT-15 colon
HOP-62 NSCLC = tested on: HOP-62 NSCLC
HT29 colon = tested on: HT29 colon
KM12 colon = tested on: KM12 colon
LOX IMVI melanoma = tested on: LOX IMVI melanoma
MCF7 breast = tested on: MCF7 breast
NCI-H23 lung = tested on: NCI-H23 lung
NCI-H522 lung = tested on: NCI-H522 lung
SNB-19 CNS = tested on: SNB-19 CNS

## O=C(Nc1ccccc1Cl)c1ccc(NC2=C(Cl)C(=O)N(Cc3ccccc3)C2=O)cc1
HCC-2998 colon
  GI50: 13.7 µM
  TGI: 26.6 µM
HCT-15 colon
  GI50: 15 µM
  TGI: 29.2 µM
HOP-62 NSCLC
  GI50: 41.2 µM
  TGI: > 100 µM
HT29 colon
  GI50: 44.8 µM
  TGI: > 100 µM
KM12 colon
  GI50: 32.7 µM
  TGI: > 100 µM
LOX IMVI melanoma
  GI50: 17.9 µM
  TGI: 32.6 µM
MCF7 breast
  GI50: 17.2 µM
  TGI: 36 µM
NCI-H23 lung
  GI50: 19.2 µM
  TGI: 35.7 µM
NCI-H522 lung
  GI50: 17.9 µM
  TGI: 38.8 µM
SNB-19 CNS
  GI50: > 100 µM
  TGI: > 100 µM

## O=[N+]([O-])c1ccc2[nH]cc(-c3c4ccccc4cc4[nH]c5ccc([N+](=O)[O-])cc5c34)c2c1
HCC-2998 colon
  GI50: 2.33 µM
  TGI: 4.58 µM
HCT-15 colon
  GI50: 1.88 µM
  TGI: 4.49 µM
HOP-62 NSCLC
  GI50: 2.54 µM
  TGI: 7.25 µM
HT29 colon
  GI50: 3.62 µM
  TGI: 11.3 µM
KM12 colon
  GI50: 1.78 µM
  TGI: 3.37 µM
LOX IMVI melanoma
  GI50: 1.92 µM
  TGI: 4.14 µM
MCF7 breast
  GI50: 1.65 µM
  TGI: 3.73 µM
NCI-H23 lung
  GI50: 2.59 µM
  TGI: 8.11 µM
NCI-H522 lung
  GI50: 2.12 µM
  TGI: 6.1 µM
SNB-19 CNS
  GI50: 2.88 µM
  TGI: 9.13 µM

## O=C1c2cccnc2-c2nc(-c3ccc([N+](=O)[O-])cc3)cc3c2c1nc1ccccc13
HCC-2998 colon
  GI50: 8 µM
  TGI: 26.5 µM
HCT-15 colon
  GI50: 1.97 µM
  TGI: 8.04 µM
HOP-62 NSCLC
  GI50: 12.2 µM
  TGI: 28.3 µM
HT29 colon
  GI50: 11.9 µM
  TGI: 26.3 µM
KM12 colon
  GI50: 3.35 µM
  TGI: 19.4 µM
LOX IMVI melanoma
  GI50: 2.28 µM
  TGI: > 100 µM
MCF7 breast
  GI50: 1.86 µM
  TGI: > 21.5 µM
NCI-H23 lung
  GI50: 2.51 µM
  TGI: 10.1 µM
NCI-H522 lung
  GI50: 2 µM
  TGI: 6.95 µM
SNB-19 CNS
  GI50: 6.4 µM
  TGI: 18.3 µM

## O=C(O)/C(Cl)=C(/Cl)C(=O)Nc1cccc(Cl)c1
HCC-2998 colon
  TGI: 37.1 µM
HCT-15 colon
  TGI: 34.9 µM
HOP-62 NSCLC
  TGI: > 76.3 µM
HT29 colon
  TGI: 42.3 µM
KM12 colon
  TGI: 47.7 µM
LOX IMVI melanoma
  TGI: 20.8 µM
MCF7 breast
  TGI: 62.8 µM
NCI-H23 lung
  TGI: 36.4 µM
NCI-H522 lung
  TGI: 10.1 µM
SNB-19 CNS
  TGI: > 92.5 µM

## COc1cc(/C=C/C(=O)c2ccc(Nc3nc(Nc4ccc(F)cc4)nc(Nc4ccc(F)cc4)n3)cc2)cc(OC)c1OC
HCC-2998 colon
  GI50: 27.7 µM
  TGI: > 100 µM
HCT-15 colon
  GI50: 5.53 µM
  TGI: > 100 µM
HOP-62 NSCLC
  GI50: 5.26 µM
  TGI: > 100 µM
HT29 colon
  GI50: 9.36 µM
  TGI: > 100 µM
KM12 colon
  GI50: 8.79 µM
  TGI: > 100 µM
LOX IMVI melanoma
  GI50: 6.73 µM
  TGI: > 100 µM
MCF7 breast
  GI50: 5.26 µM
  TGI: > 100 µM
NCI-H23 lung
  GI50: 4.86 µM
  TGI: > 100 µM
NCI-H522 lung
  GI50: 3.1 µM
  TGI: > 100 µM
SNB-19 CNS
  GI50: 76.6 µM
  TGI: > 100 µM

## CO/N=C1/c2cc(OC)ccc2-c2c(NOC)nc3ccccc3c21
HCC-2998 colon
  GI50: 35.6 µM
  TGI: > 100 µM
HCT-15 colon
  GI50: 32.6 µM
  TGI: > 100 µM
HOP-62 NSCLC
  GI50: 24.6 µM
  TGI: 39.4 µM
HT29 colon
  GI50: 42 µM
  TGI: > 100 µM
KM12 colon
  GI50: 37.5 µM
  TGI: > 100 µM
LOX IMVI melanoma
  GI50: 26.7 µM
  TGI: > 100 µM
MCF7 breast
  GI50: 27.1 µM
  TGI: > 100 µM
NCI-H23 lung
  GI50: 28.6 µM
  TGI: 97.9 µM
NCI-H522 lung
  GI50: 26.6 µM
  TGI: > 100 µM
SNB-19 CNS
  GI50: 17.5 µM
  TGI: 53 µM

## Oc1ccc2ccccc2c1/C=N\Nc1ccccn1
HCC-2998 colon
  GI50: 4.13 µM
  TGI: > 100 µM
HCT-15 colon
  GI50: 0.511 µM
  TGI: > 100 µM
HOP-62 NSCLC
  GI50: 0.416 µM
  TGI: 17 µM
HT29 colon
  GI50: 39.1 µM
  TGI: > 100 µM
KM12 colon
  GI50: 1.09 µM
  TGI: > 100 µM
LOX IMVI melanoma
  GI50: 0.275 µM
MCF7 breast
  GI50: 0.895 µM
  TGI: > 34 µM
NCI-H23 lung
  GI50: 0.539 µM
  TGI: > 100 µM
NCI-H522 lung
  GI50: 0.413 µM
SNB-19 CNS
  GI50: 1.33 µM
  TGI: > 100 µM

## CN(C)CCn1cc(-c2ccc3c(Nc4ccc(CC(=O)Nc5cccc(F)c5)cc4)ncnc3c2)cn1
HCC-2998 colon
  GI50: 1.77 µM
  TGI: 3.84 µM
HCT-15 colon
  GI50: 4.44 µM
  TGI: > 10 µM
HOP-62 NSCLC
  GI50: > 10 µM
  TGI: > 10 µM
HT29 colon
  GI50: 1.29 µM
  TGI: 3.16 µM
KM12 colon
  GI50: 0.393 µM
  TGI: 1.97 µM
LOX IMVI melanoma
  GI50: 1.33 µM
  TGI: 3.02 µM
MCF7 breast
  GI50: 1.21 µM
  TGI: 3.55 µM
NCI-H23 lung
  GI50: 1.87 µM
  TGI: 4.98 µM
NCI-H522 lung
  GI50: 1.32 µM
  TGI: 3.22 µM
SNB-19 CNS
  GI50: 1.34 µM
  TGI: 5.39 µM

## CCOC1NC(=O)Oc2ccccc21 (stereo not given)
HCC-2998 colon
  TGI: > 100 µM
HCT-15 colon
  TGI: > 100 µM
HOP-62 NSCLC
  TGI: > 100 µM
HT29 colon
  TGI: > 100 µM
KM12 colon
  TGI: > 100 µM
LOX IMVI melanoma
  TGI: > 100 µM
MCF7 breast
  TGI: > 100 µM
NCI-H23 lung
  TGI: > 100 µM
NCI-H522 lung
  TGI: > 100 µM
SNB-19 CNS
  TGI: > 100 µM

## O=C1/C(=C/c2ccc(O)cc2)CCC1CNc1ccc(Cl)cc1 (stereo not given)
HCC-2998 colon
  TGI: 14.8 µM
HCT-15 colon
  TGI: 2.83 µM
HOP-62 NSCLC
  TGI: 20.7 µM
HT29 colon
  TGI: 14.9 µM
KM12 colon
  TGI: 8.45 µM
LOX IMVI melanoma
  TGI: 7.24 µM
MCF7 breast
  TGI: 6.82 µM
NCI-H23 lung
  TGI: 24.3 µM
NCI-H522 lung
  TGI: 2.49 µM
SNB-19 CNS
  TGI: 28.6 µM

## Cc1ccc(/C=C(\C#N)n2nnc3cc(F)c(F)cc32)cc1
HCC-2998 colon
  GI50: 2.96 µM
  TGI: 11.6 µM
HCT-15 colon
  GI50: 0.651 µM
  TGI: 15.3 µM
HOP-62 NSCLC
  GI50: 1.52 µM
  TGI: 3.64 µM
HT29 colon
  GI50: 0.421 µM
  TGI: 1.53 µM
KM12 colon
  GI50: 2.65 µM
  TGI: 15.4 µM
LOX IMVI melanoma
  GI50: 2.88 µM
  TGI: 11.4 µM
MCF7 breast
  GI50: 2.45 µM
  TGI: > 100 µM
NCI-H23 lung
  GI50: 5.21 µM
  TGI: 28 µM
NCI-H522 lung
  GI50: 0.291 µM
  TGI: 1.12 µM
SNB-19 CNS
  GI50: 4.58 µM
  TGI: 20.9 µM

## C[n+]1c2ccccc2c(NC2CCNCC2)c2[nH]c3ccccc3c21
HCC-2998 colon
  GI50: 0.331 µM
  TGI: 1.63 µM
HCT-15 colon
  GI50: 10.3 µM
  TGI: > 46 µM
HOP-62 NSCLC
  GI50: 0.473 µM
  TGI: 5.17 µM
HT29 colon
  GI50: 0.18 µM
  TGI: 2.64 µM
KM12 colon
  GI50: 0.718 µM
  TGI: 5.77 µM
LOX IMVI melanoma
  GI50: 1.68 µM
  TGI: 5.52 µM
MCF7 breast
  GI50: 0.231 µM
  TGI: 2.2 µM
NCI-H23 lung
  GI50: 0.0944 µM
  TGI: 0.88 µM
NCI-H522 lung
  GI50: 0.124 µM
  TGI: 0.699 µM
SNB-19 CNS
  GI50: 0.269 µM
  TGI: 2.2 µM

## Cn1c(=O)c(F)c(Nc2ccc(I)cc2F)c2c(=O)n(C[C@@H](O)CO)cnc21
HCC-2998 colon
  GI50: < 0.01 µM and 0.0028 µM
  TGI: 0.0969 µM and 0.57 µM
HCT-15 colon
  GI50: 1.9 µM and 0.873 µM
  TGI: 43.2 µM and > 8.26 µM
HOP-62 NSCLC
  GI50: 0.0545 µM and 0.0151 µM
  TGI: > 69.7 µM
HT29 colon
  GI50: < 0.01 µM and 0.0029 µM
  TGI: 19.5 µM and > 3.46 µM
KM12 colon
  GI50: 0.0237 µM and 0.0319 µM
  TGI: 39.1 µM and > 4.11 µM
LOX IMVI melanoma
  GI50: 0.0469 µM and 0.0198 µM
  TGI: 12.5 µM and > 3.38 µM
MCF7 breast
  GI50: 21 µM
  TGI: 75 µM and > 4.05 µM
NCI-H23 lung
  GI50: 0.0183 µM and 0.0231 µM
  TGI: > 46.4 µM
NCI-H522 lung
  TGI: > 100 µM
SNB-19 CNS
  GI50: 4.73 µM
  TGI: > 100 µM

## O=C1c2cc3c(cc2-c2c1c1ccc([N+](=O)[O-])cc1c(=O)n2CCCCl)OCO3
HCC-2998 colon
  GI50: 0.489 µM
  TGI: 5.43 µM
HCT-15 colon
  GI50: 2.09 µM
  TGI: > 100 µM
HOP-62 NSCLC
  GI50: 0.383 µM
  TGI: > 100 µM
HT29 colon
  GI50: 1.07 µM
  TGI: > 100 µM
KM12 colon
  GI50: 2.27 µM
  TGI: > 100 µM
LOX IMVI melanoma
  GI50: 0.0742 µM
  TGI: > 100 µM
MCF7 breast
  GI50: 0.333 µM
NCI-H23 lung
  GI50: 0.285 µM
NCI-H522 lung
  GI50: > 85.9 µM
  TGI: > 100 µM
SNB-19 CNS
  GI50: 0.138 µM
  TGI: > 100 µM
